This note sets out measurements from patent US20240226107A1, “UBIQUITIN-SPECIFIC PROTEASE 1 (USP1) INHIBITOR” (SIMCERE ZAIMING PHARMACEUTICAL CO., LTD., priority 2021, published 2024).

As usually defined, the IC50 is the point on the concentration scale where inhibition reaches its midpoint. The clearance is a measure of how efficiently the substance is removed, as volume per time. In general, bioavailability refers to dose-corrected exposure relative to a reference, in per cent. By Papp A→B is commonly meant how fast a substance crosses the layer from the apical side. Usually Papp B→A stands for the apparent permeability from the basolateral to the apical side of a cell layer. Broadly, the efflux ratio is the permeability from basolateral to apical divided by that in the opposite direction, in the common usage.

One data set has as its target CYP2C9 (Homo sapiens (Human), UniProt P11712). Nature of the data set: CYP enzyme inhibition in pooled human liver microsomes (diclofenac sodium). The format is in vitro ADME. On the procedure: (§1) Typical substrate metabolic responses of five major human CYP subtypes (CYP1A2, CYP2C9, CYP2C19, CYP2D6, CYP3A4) were evaluated using 150-donor pooled human liver microsomes (purchased from Corning, Cat. No.: 452117). The influence of different concentrations of each compound to be tested on metabolic responses of phenacetin (CYP1A2), diclofenac sodium (CYP2C9), S-mephenytoin (CYP2C19), bufuralol hydrochloride (CYP2D6), and midazolam (CYP3A4) was determined by liquid chromatography-mass spectrometry (LC/MS/MS). […] Then 200 μL of acetonitrile solution containing 3% formic acid and 40 nM internal standard verapamil was added and centrifuged at 4000 rpm for 50 min. The mixture was cooled on ice for 20 min and centrifuged at 4000 rpm for 20 min to precipitate the protein. Then 200 μL of supernatant was analyzed by LC-MS/MS. The peak area was calculated from the chromatogram. The residual activity ratio (%) was calculated according to the following equation: Peak area ratio=metabolite peak area/internal standard peak area Residual activity ratio (%)=peak area ratio of compounds-to-be-tested group/peak area ratio of blank group The half inhibitory concentration (IC50) for CYP was calculated by Excel XLfit 5.3.1.3.
On the technique in general: Microsomes from liver hold many membrane-bound enzymes, among them those of drug oxidation.

For another data set, the target named is CYP3A4 (Homo sapiens (Human), UniProt P08684). Description: CYP enzyme inhibition in pooled human liver microsomes (midazolam). It is filed as in vitro ADME. The protocol:
as §1

The nature of data set [1]: In vivo pharmacokinetics in SD rats. To be noted: male, rat, plasma. The protocol: Using SD rats as test animals, drug concentrations in plasma of the rats at different times after intravenous injection and intragastric administration of the compounds provided in the present application were determined by LC/MS/MS. In vivo pharmacokinetic behaviors of the compounds provided in the present application in rats were investigated to evaluate pharmacokinetic characteristics of the compounds.
There were three healthy 6-8-week-old male SD rats in each group.
Intravenous administration: A certain amount of drug was weighed, and then 10 vol % N,N-dimethylacetamide, 33 vol % triethylene glycol, and 57 vol % physiological saline were added to prepare 1 mg/mL colorless clear and transparent liquid;
Intragastric administration: A certain amount of drug was weighed, and then 0.5 wt % hydroxypropyl methylcellulose, 0.1 vol % tween 80, and 99.6 vol % physiological saline were added to prepare 1 mg/mL white suspension.
After fasting overnight, the SD rats were dosed intravenously or intragastrically.
The compounds provided in the present application were administered intravenously to the rats, then 0.2 mL of blood was collected from jugular veins respectively at 0.083, 0.25, 0.5, 1, 2, 4, 8, and 24 h after the administration, and placed in a test tube containing EDTA-K2. The test tube was then centrifuged at 4000 rpm at 4° C. for 5 min to separate plasma, and the plasma was stored at −75° C. Alternatively, the compounds provided in the present application were administered intragastrically to the rats, then 0.2 mL of blood was collected from jugular veins respectively at 0.25, 0.5, 1, 2, 4, 8, and 24 h after the administration, and placed in a test tube containing EDTA-K2. The test tube was then centrifuged at 3500 rpm at 4° C. for 10 min to separate plasma, and the plasma was stored at −75° C.
The content of the compounds to be tested in rat plasma after intravenous administration or intragastric administration at different concentrations was determined: 30 μL of rat plasma at each time after administration was taken, 200 μL (50 ng/mL) of solution of internal standard dexamethasone in acetonitrile was added, then the resulting mixture was vortex-mixed for 30 s, and centrifuged at 4700 rpm at 4° C. for 15 min, the supernatant of plasma samples was diluted three times with water, and 2.0 μL of diluted solution was taken for LC-MS/MS.

A further data set has as its target CYP2D6 (Homo sapiens (Human), UniProt P10635). Description: CYP enzyme inhibition in pooled human liver microsomes (bufuralol hydrochloride). It is filed as in vitro ADME. On the procedure: as §1
The target of data set [2] is USP1 (Recombinant Human His6-USP1/His6-UAF1 Complex Protein) (Homo sapiens (Human), UniProt O94782). Nature of the data set: In vitro activity assay for USP1 (Ub-CHOP2-Reporter deubiquitination assay). The format is biochemical. To be noted: 0.5 h incubation at room temperature, read-out: In vitro inhibitory activity of USP1 IC50. The essentials:
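His6-USP1/His6-UAF1 complex was mixed with compound in 20 mM Tris-HCl pH 8.0, 2 mM CaCl2, 2 mM β-mercaptoethanol and 0.05% CHAPS. Ub-CHOP2 reporter system plus substrate was added, then incubated 0.5 h at room temperature. IC50 came from a four-parameter logistic fit.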

Data set [3] is described as follows: Caco-2 permeability assay. To be noted: human, pH 7.4. It is filed as in vitro ADME. On the technique in general: Caco-2 monolayers are a common model of the intestinal barrier.
Method: The apparent permeability coefficient (Papp) of the analytical drug was determined by liquid chromatography-mass spectrometry (LC-MS/MS) through a Caco-2 cell model.
In this test example, Caco-2 cells were purchased from American Type Culture Collection (ATCC); 4-hydroxyethyl piperazine ethane sulfonic acid (HEPES) was purchased from Beijing Solarbio Science & Technology Co., Ltd.; Hanks' balanced salt solution (HBSS) and non-essential amino acids (NEAA) were purchased from ThermoFisher Scientific; penicillin, streptomycin, and trypsin/EDTA were purchased from Solarbio; fetal bovine serum (FBS) and DMEM medium were purchased from Corning; HTS-96-well Transwell plates and other sterile consumables were purchased from Corning; Millicell resistance measuring system was purchased from Millipore; Cellometer®K2 was purchased from Nexcelom Bioscience; Infinite 200 PRO microplate reader was purchased from Tecan; and MTS2/4 orbital shaker was purchased from IKA Labortechnik.
Caco-2 cells were cultured in a culture flask. […] Cells at a confluency of 70-90% can be used to inoculate the Transwell. Prior to cell inoculation, 50 μL of cell culture medium was added to each well of the upper Transwell chamber and 25 mL of cell culture medium was added to the lower plate. The plate was incubated in an incubator (37° C., 5% CO2) for 1 h, and then inoculated with cells. After cell digestion, the cell suspension was pipetted and transferred to a round bottom centrifuge tube for centrifugation at 120 g for 5 min. […] The medium was changed as follows: transwell chambers were separated from the receiver plate, medium in the receiver plate was discarded, then medium in the Transwell chambers was discarded, and finally, 75 μL of fresh medium was added to each chamber, and 25 mL of fresh medium was added to the receiver plate.
After approximately 14 days of culture, the Caco-2 cells reached the confluency and completed differentiation. In this case, the cells can be applied to permeability assay. The monolayer resistance was measured with a resistance meter (Millipore, USA) and the resistance per well was recorded. After the measurement, the Transwell plate was put back to the incubator. Calculation of resistance: measured resistance value (ohms)×membrane area (cm^2)=TEER value (ohm·cm^2); if TEER value <230 ohms·cm^2, the well can not be used for permeability assay.
In 900 mL of purified water, 2.38 g HEPES and 0.35 g sodium bicarbonate were dissolved, then 100 mL of 10×HBSS was added and stirred well, pH was adjusted to 7.4, and finally, the resulting solution was filtered to obtain 1 L of transport buffer (HBSS, 10 mM HEPES, pH 7.4).
A DMSO stock solution of 1 mM of compound to be tested was diluted with the transport buffer to obtain 5 μM test solution. The control compound digoxin or minoxidil was diluted with DMSO to 2 mM, and diluted with the transport buffer described above to 10 μM to obtain a control compound test solution. In addition, DMSO was also diluted with the transport buffer described above to a receiving end solution containing 0.5% DMSO.
The Transwell plate was removed from the incubator. Monolayer cell membranes were rinsed twice with the transport buffer (10 mM HEPES, pH 7.4) and incubated at 37° C. for 30 min.
The transport rate of the compound from the apical side to the basolateral side was determined. […]
The transport rate of the compound from the basolateral side to the apical side was determined.
Data set [4] in a line: Metabolic stability in vitro in rat hepatocytes. It is filed as in vitro ADME. The note with it: read-out: Intrinsic clearance. The protocol:
The concentration of each compound in the reaction system was measured by LC/MS/MS to calculate the intrinsic clearance of the compounds to be tested, and evaluate the metabolic stability in vitro in rat hepatocytes.
To the incubation plate, 198 μL of 0.5×10^6 cells/mL rat hepatocyte mixture and 2.0 μL of 100 μM compound to be tested or positive control were added to initiate reaction. Incubation was performed at 900 rpm at 37° C. […] Then the mixture was vortex-mixed for 5 min. […] Then 100 μL of supernatant of each compound was transferred to a 96-well sample plate, and 100 μL of purified water was added to dilute the sample. The resulting samples were quantified by ion chromatograms. The residual rate was calculated from peak areas of the compounds to be tested or the positive control. The slope k was determined using Microsoft Excel by linear regression of natural logarithm of the residual rate to the incubation time. The intrinsic clearance (in vitro CLint, μL/min/10^6 cells) was calculated from the slope value according to the following equation: […]

Chain of CYP2D6 (P10635 whole entry): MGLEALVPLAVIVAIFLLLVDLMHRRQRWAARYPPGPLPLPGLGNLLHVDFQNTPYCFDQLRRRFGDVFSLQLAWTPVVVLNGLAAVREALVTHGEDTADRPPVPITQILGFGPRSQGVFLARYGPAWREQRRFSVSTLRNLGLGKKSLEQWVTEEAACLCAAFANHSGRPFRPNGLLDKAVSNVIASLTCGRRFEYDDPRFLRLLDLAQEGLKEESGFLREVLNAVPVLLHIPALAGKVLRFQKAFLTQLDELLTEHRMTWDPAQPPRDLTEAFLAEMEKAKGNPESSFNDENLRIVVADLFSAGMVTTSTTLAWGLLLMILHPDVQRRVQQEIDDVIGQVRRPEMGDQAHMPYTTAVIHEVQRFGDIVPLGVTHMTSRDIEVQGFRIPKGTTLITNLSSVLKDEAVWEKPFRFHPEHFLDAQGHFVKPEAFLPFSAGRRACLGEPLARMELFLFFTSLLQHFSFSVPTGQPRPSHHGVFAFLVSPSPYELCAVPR
Chain of CYP3A4 (P08684 whole entry): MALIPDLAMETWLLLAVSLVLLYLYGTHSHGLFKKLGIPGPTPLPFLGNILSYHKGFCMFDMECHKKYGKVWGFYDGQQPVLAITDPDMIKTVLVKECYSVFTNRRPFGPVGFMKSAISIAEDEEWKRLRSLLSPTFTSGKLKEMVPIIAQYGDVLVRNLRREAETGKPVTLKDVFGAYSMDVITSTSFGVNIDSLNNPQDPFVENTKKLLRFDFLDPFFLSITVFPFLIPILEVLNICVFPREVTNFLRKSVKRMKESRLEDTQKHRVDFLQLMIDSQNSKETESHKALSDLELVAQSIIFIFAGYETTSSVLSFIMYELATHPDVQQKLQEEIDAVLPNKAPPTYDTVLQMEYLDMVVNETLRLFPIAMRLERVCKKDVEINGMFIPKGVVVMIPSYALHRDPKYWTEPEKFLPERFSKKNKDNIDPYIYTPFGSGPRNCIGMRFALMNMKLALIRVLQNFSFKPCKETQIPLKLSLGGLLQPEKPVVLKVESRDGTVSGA
Chain of CYP2C9 (P11712 whole entry): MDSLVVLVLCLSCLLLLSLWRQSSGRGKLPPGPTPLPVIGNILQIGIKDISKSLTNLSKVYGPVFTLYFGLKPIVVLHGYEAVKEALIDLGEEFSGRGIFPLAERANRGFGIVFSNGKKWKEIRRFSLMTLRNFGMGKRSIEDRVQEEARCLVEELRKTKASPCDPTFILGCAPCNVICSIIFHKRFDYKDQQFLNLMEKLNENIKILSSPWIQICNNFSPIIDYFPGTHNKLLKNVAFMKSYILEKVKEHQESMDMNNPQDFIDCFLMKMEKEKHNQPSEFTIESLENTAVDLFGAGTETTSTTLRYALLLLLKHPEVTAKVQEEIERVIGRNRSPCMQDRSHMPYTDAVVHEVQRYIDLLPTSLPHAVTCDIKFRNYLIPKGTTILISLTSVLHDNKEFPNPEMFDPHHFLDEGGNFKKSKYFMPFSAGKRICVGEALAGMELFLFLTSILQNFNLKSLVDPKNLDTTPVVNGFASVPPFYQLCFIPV
Chain of USP1 (Recombinant Human His6-USP1/His6-UAF1 Complex Protein) (O94782 whole entry): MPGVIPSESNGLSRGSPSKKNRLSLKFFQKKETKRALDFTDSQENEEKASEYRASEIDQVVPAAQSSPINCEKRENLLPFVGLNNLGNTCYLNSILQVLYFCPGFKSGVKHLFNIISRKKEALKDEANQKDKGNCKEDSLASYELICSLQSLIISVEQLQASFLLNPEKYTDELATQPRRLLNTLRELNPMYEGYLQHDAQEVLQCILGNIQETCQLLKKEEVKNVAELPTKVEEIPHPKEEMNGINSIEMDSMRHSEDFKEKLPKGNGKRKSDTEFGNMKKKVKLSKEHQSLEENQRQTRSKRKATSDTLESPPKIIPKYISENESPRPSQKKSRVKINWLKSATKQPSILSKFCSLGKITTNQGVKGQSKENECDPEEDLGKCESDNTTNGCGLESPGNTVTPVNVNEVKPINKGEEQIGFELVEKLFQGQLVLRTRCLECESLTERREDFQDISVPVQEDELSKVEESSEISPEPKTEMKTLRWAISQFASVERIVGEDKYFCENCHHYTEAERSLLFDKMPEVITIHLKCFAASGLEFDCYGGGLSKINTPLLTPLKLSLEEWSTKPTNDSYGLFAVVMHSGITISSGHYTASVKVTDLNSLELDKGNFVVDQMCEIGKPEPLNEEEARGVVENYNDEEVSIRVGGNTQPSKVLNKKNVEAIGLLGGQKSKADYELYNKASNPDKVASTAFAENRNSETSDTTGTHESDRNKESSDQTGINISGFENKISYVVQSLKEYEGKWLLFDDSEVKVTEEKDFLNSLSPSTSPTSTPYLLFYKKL
Chain of USP1 (Recombinant Human His6-USP1/His6-UAF1 Complex Protein) (Q8TAF3 whole entry partner): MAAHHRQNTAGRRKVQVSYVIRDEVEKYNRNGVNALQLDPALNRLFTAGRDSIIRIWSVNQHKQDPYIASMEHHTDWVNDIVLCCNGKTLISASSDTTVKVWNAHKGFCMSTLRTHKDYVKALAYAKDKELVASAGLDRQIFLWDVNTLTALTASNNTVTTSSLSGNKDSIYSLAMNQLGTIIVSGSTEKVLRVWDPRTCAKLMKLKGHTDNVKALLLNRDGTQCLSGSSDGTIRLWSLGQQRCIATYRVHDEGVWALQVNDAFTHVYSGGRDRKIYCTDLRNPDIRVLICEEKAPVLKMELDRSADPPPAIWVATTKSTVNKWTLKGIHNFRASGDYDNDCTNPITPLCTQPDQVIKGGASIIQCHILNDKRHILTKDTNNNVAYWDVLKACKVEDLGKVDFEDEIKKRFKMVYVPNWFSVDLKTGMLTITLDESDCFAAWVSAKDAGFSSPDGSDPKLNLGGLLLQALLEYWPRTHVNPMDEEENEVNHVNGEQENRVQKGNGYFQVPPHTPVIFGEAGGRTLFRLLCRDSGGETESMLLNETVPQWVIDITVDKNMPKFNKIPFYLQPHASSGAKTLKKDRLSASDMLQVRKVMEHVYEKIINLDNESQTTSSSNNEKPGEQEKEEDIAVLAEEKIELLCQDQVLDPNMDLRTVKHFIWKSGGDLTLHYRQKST

For the compound `COc1ncnc(C2CC2)c1-c1ncc2c(n1)N(Cc1ccc(-c3nc(C(F)(F)F)cn3C)cc1)CC(=O)N2C` [Compound 11, 2-(4-cyclopropyl-6-methoxypyrimidin-5-yl)-5-methyl-8-(4-(1-methyl-4-(trifluoromethyl)-1H-imidazol-2-yl)benzyl)-7,8-dihydropteridin-6(5H)-one], the half-inhibitory concentration (IC50) against CYP2C9 was 28.9 µM; on CYP3A4, greater than 30 µM; against CYP2D6, greater than 30 µM; in data set [2], 45.4 nM. The Vd in data set [1] (IV 1 mg/kg, read-out: Apparent volume of distribution Vss_obs) came to 3.2 L/kg. In addition, the clearance in data set [1] (IV 1 mg/kg, read-out: Clearance CL_obs) came out at 16.5 mL/min/kg. In data set [1] (IV 1 mg/kg, read-out: Half-life period T1/2 (converted)), the half-life is 192 min. Further, the bioavailability in data set [1] (PO 5 mg/kg versus IV, read-out: Bioavailability F) came out at 96.3%. The Cmax in data set [1] (PO 5 mg/kg, read-out: Maximum plasma concentration Cmax) is 1010 ng/mL. In data set [3] (Caco-2, 5 μM, 2 h, apical to basolateral), the apparent permeability from apical to basolateral (Papp A→B) at 2 h, 5 μM was determined as 4.9 ×10⁻⁶ cm/s. This compound came in with a Papp B→A at 2 h, 5 μM in data set [3] (Caco-2, 5 μM, 2 h, basolateral to apical) of 17.6 ×10⁻⁶ cm/s. In addition, in data set [3] (Caco-2, Papp (B−A)/Papp (A−B)), the efflux ratio at 2 h, 5 μM is 3.6. For the same compound, in data set [4], the hepatocyte CLint at 1 μM was less than 1 µL/min/1e6 cells.
